Measured values: patent US20150266850A1 (E.I.DU PONT DE NEMOURS AND COMPANY, priority 2012, published 2015)
Marks after values point to notes of the source that are not given here.

Tests used:
Type in all cases: in vivo
Conditions in all cases: 100 = 100% disease control
Botrytis cinerea = assay: Test E: tomato botrytis, preventive spray on tomato seedlings, visual disease rating
Excerpt: (§1) General protocol for preparing test suspensions for Tests A-E: the test compounds were first dissolved in acetone in an amount equal to 11% of the final volume and then suspended at the desired concentration (in ppm) in acetone and purified water (50/50 mix by volume) containing 250 ppm of the surfactant Trem® 014 (polyhydric alcohol esters). The resulting test suspensions were then used in Tests A-E. Spraying a 200 ppm test suspension to the point of run-off on the test plants was the equivalent of a rate of 800 g/ha.
The test suspension was sprayed to the point of run-off on tomato seedlings. The following day the seedlings were inoculated with a spore suspension of Botrytis cinerea (the causal agent of tomato botrytis) and incubated in saturated atmosphere at 20° C. for 48 h, and then moved to a growth chamber at 27° C. for 3 additional days, after which time disease ratings were visually made.
(§2) Results for Tests A-E are given in Table A. In the Table, a rating of 100 indicates 100% disease control and a rating of 0 indicates no disease control (relative to the controls). A dash (-) indicates no test results. All results are for 200 ppm except where followed by an “*”, which indicates 40 ppm or “**”, which indicates 50 ppm.

[1] = tested on: Erysiphe graminis f. sp. tritici; assay: Test A: wheat powdery mildew, preventive spray on wheat seedlings, visual disease rating
Excerpt: as §1
The test suspension was sprayed to the point of run-off on wheat seedlings. The following day the seedlings were inoculated with a spore dust of Erysiphe graminis f. sp. tritici, (the causal agent of wheat powdery mildew) and incubated in a growth chamber at 20° C. for 8 days, after which time disease ratings were visually made.
as §2

[2] = tested on: Puccinia recondita f sp. tritici; assay: Test B: wheat leaf rust, preventive spray on wheat seedlings, visual disease rating
Excerpt: as §1
(§3) The test suspension was sprayed to the point of run-off on wheat seedlings. The following day the seedlings were inoculated with a spore suspension of Puccinia recondita f sp. tritici (the causal agent of wheat leaf rust) and incubated in a saturated atmosphere at 20° C. for 24 h, and then moved to a growth chamber at 20° C. for 7 days, after which time disease ratings were visually made.
as §2

Septoria nodorum = assay: Test D: wheat glume blotch, preventive spray on wheat seedlings, visual disease rating
Excerpt: as §1
as §3, with “Septoria nodorum” for “Puccinia recondita f sp. tritici”, “glume blotch)” for “leaf rust)”, “48” for “24”
as §2

Septoria tritici = assay: Test C: wheat leaf blotch, preventive spray on wheat seedlings, visual disease rating
Excerpt: as §1
The test suspension was sprayed to the point of run-off on wheat seedlings. The following day the seedlings were inoculated with a spore suspension of Septoria tritici (the causal agent of wheat leaf blotch) and incubated in a saturated atmosphere at 24° C. for 48 h, and then moved to a growth chamber at 20° C. for 19 days, after which time disease ratings were visually made.
as §2

With `COC(=O)NCc1cc(-c2ccn(-c3ccc(F)cc3F)n2)ccc1C` [Cmpd 64] the “Test E disease control rating” value (Botrytis cinerea; 40 ppm (*)) was 74* %, the “Test A disease control rating” value ([1]; 40 ppm (*)) was 100* % and the “Test B disease control rating” value ([2]; 40 ppm (*)) was 100* %. For the same compound, the “Test D disease control rating” value (Septoria nodorum; 40 ppm (*)) was 100* % and the “Test C disease control rating” value (Septoria tritici; 40 ppm (*)) was 97* %.

With `COC(=O)NCc1cc(-n2ccc(-c3ccc(OC)cc3F)n2)ccc1C` [Cmpd 9] the “Test E disease control rating” value (Botrytis cinerea; 200 ppm) was 87%, the “Test A disease control rating” value ([1]; 200 ppm) was 100% and the “Test B disease control rating” value ([2]; 200 ppm) was 100%. The “Test D disease control rating” value (Septoria nodorum; 200 ppm) was 100% and the “Test C disease control rating” value (Septoria tritici; 200 ppm) was 99%.

With `COC(=O)NCc1cc(-c2ccn(-c3ccc(Br)cc3[N+](=O)[O-])n2)ccc1C` [Cmpd 48] the “Test E disease control rating” value (Botrytis cinerea; 40 ppm (*)) was 37* %, the “Test A disease control rating” value ([1]; 40 ppm (*)) was 0* % and the “Test B disease control rating” value ([2]; 40 ppm (*)) was 100* %. For the same compound, the “Test D disease control rating” value (Septoria nodorum; 40 ppm (*)) was 100* % and the “Test C disease control rating” value (Septoria tritici; 40 ppm (*)) was 100* %.

`COC(=O)NCc1cc(-n2ccc(-c3ccc(Br)cc3OC)n2)ccc1C` [Cmpd 58] was tested, and the “Test E disease control rating” value (Botrytis cinerea; 40 ppm (*)) was 26* %, the “Test A disease control rating” value ([1]; 40 ppm (*)) was 100* % and the “Test B disease control rating” value ([2]; 40 ppm (*)) was 100* %. The “Test D disease control rating” value (Septoria nodorum; 40 ppm (*)) was 100* % and the “Test C disease control rating” value (Septoria tritici; 40 ppm (*)) was 96* %.

`COC(=O)NCc1cc(-c2ccn(-c3ccc(OC)cc3Cl)n2)ccc1C` [Compound 20, methyl N-[[5-[1-(2-chloro-4-methoxyphenyl)-1H-pyrazol-3-yl]-2-methylphenyl]-methyl]carbamate] showed a pest or weed control at 200 ppm (Botrytis cinerea; Botrytis cinerea, 120 h, 200 ppm) of 0%, a pest or weed control at 200 ppm ([1]; Blumeria graminis, 192 h, 200 ppm) of 100% and a pest or weed control at 200 ppm ([2]; 192 h, 200 ppm) of 100%. The pest or weed control at 200 ppm (Septoria nodorum; Parastagonospora nodorum, 216 h, 200 ppm) was 100% and the pest or weed control at 200 ppm (Septoria tritici; Zymoseptoria tritici, 504 h, 200 ppm) was 100%.

`COC(=O)NCc1cc(-c2ccn(-c3ccc(OC)cc3F)n2)ccc1C` [Cmpd 19] was tested, and the “Test E disease control rating” value (Botrytis cinerea; 200 ppm) was 37%, the “Test A disease control rating” value ([1]; 200 ppm) was 100% and the “Test B disease control rating” value ([2]; 200 ppm) was 100%. For the same compound, the “Test C disease control rating” value (Septoria tritici; 200 ppm) was 100%.

For `COC(=O)NCc1cc(-n2ncc(-c3ccc(OC)cc3C(F)(F)F)n2)ccc1C` [Cmpd 104], the “Test E disease control rating” value (Botrytis cinerea; 40 ppm (*)) was 0* %, the “Test A disease control rating” value ([1]; 40 ppm (*)) was 98* % and the “Test B disease control rating” value ([2]; 40 ppm (*)) was 100* %. For the same compound, the “Test D disease control rating” value (Septoria nodorum; 40 ppm (*)) was 100* % and the “Test C disease control rating” value (Septoria tritici; 40 ppm (*)) was 91* %.

With `COC(=O)NCc1cc(-n2ccc(-c3ccc(Cl)cc3Br)n2)ccc1C` [Cmpd 80] the “Test E disease control rating” value (Botrytis cinerea; 40 ppm (*)) was 81* %, the “Test A disease control rating” value ([1]; 40 ppm (*)) was 97* % and the “Test B disease control rating” value ([2]; 40 ppm (*)) was 100* %. For the same compound, the “Test D disease control rating” value (Septoria nodorum; 40 ppm (*)) was 100* % and the “Test C disease control rating” value (Septoria tritici; 40 ppm (*)) was 58* %.

With “methyl N-[[5-[3-(2,6-dimethoxy-3-pyridinyl)-1H-pyrazol-1-yl]-2-methylphenyl]-methyl]carbamate [Compound 46]” the “Test E disease control rating” value (Botrytis cinerea; 40 ppm (*)) was 92* %, the “Test A disease control rating” value ([1]; 40 ppm (*)) was 98* % and the “Test B disease control rating” value ([2]; 40 ppm (*)) was 100* %. The “Test D disease control rating” value (Septoria nodorum; 40 ppm (*)) was 100* % and the “Test C disease control rating” value (Septoria tritici; 40 ppm (*)) was 98* %.

`COC(=O)NCc1cc(-n2ccc(-c3ccc(Br)cc3Br)n2)ccc1C` [Cmpd 109] was tested, and the “Test E disease control rating” value (Botrytis cinerea; 40 ppm (*)) was 0* %, the “Test A disease control rating” value ([1]; 40 ppm (*)) was 99* % and the “Test B disease control rating” value ([2]; 40 ppm (*)) was 100* %. The “Test D disease control rating” value (Septoria nodorum; 40 ppm (*)) was 100* % and the “Test C disease control rating” value (Septoria tritici; 40 ppm (*)) was 92* %.

With `COC(=O)NCc1cc(-n2ccc(-c3ccc(F)cc3C)n2)ccc1C` [Cmpd 37] the “Test E disease control rating” value (Botrytis cinerea; 40 ppm (*)) was 77* %, the “Test A disease control rating” value ([1]; 40 ppm (*)) was 95* % and the “Test B disease control rating” value ([2]; 40 ppm (*)) was 100* %. For the same compound, the “Test D disease control rating” value (Septoria nodorum; 40 ppm (*)) was 100* % and the “Test C disease control rating” value (Septoria tritici; 40 ppm (*)) was 100* %.

For `COC(=O)NCc1cc(-n2ccc(-c3ccc(Cl)cc3C)n2)ccc1C` [Cmpd 36], the “Test E disease control rating” value (Botrytis cinerea; 40 ppm (*)) was 74* %, the “Test A disease control rating” value ([1]; 40 ppm (*)) was 100* % and the “Test B disease control rating” value ([2]; 40 ppm (*)) was 100* %. For the same compound, the “Test D disease control rating” value (Septoria nodorum; 40 ppm (*)) was 100* % and the “Test C disease control rating” value (Septoria tritici; 40 ppm (*)) was 100* %.

With `COC(=O)NCc1cc(-c2ccn(-c3ccc(C#N)cc3C#N)n2)ccc1C` [Cmpd 93] the “Test E disease control rating” value (Botrytis cinerea; 200 ppm) was 0%, the “Test A disease control rating” value ([1]; 200 ppm) was 0% and the “Test B disease control rating” value ([2]; 200 ppm) was 0%. The “Test D disease control rating” value (Septoria nodorum; 200 ppm) was 64%.
